Measured values reported in PubChem BioAssay (NCI).
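Where inhibition never reached the appropriate level, the endpoint shown equals the highest concentration tested. Otherwise, values were interpolated linearly from a five-concentration, 48-hour dose response in 96-well plates. Definition used: TGI = concentration required for complete inhibition of growth.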

What was measured:
Assay in all cases: growth of human tumour cells (NCI), 48 h
786-0 renal = tested on: 786-0 renal
A498 renal = tested on: A498 renal
A549 NSCLC = tested on: A549 NSCLC
ACHN renal = tested on: ACHN renal
CAKI-1 renal = tested on: CAKI-1 renal
CCRF-CEM leukemia = tested on: CCRF-CEM leukemia
COLO 205 colon = tested on: COLO 205 colon
DU-145 prostate = tested on: DU-145 prostate
EKVX NSCLC = tested on: EKVX NSCLC
HCC-2998 colon = tested on: HCC-2998 colon
HCT-116 colon = tested on: HCT-116 colon
HCT-15 colon = tested on: HCT-15 colon
HOP-62 NSCLC = tested on: HOP-62 NSCLC
HOP-92 NSCLC = tested on: HOP-92 NSCLC
HS 578T breast = tested on: HS 578T breast
HT29 colon = tested on: HT29 colon
IGROV1 ovarian = tested on: IGROV1 ovarian
K-562 leukemia = tested on: K-562 leukemia
KM12 colon = tested on: KM12 colon
LOX IMVI melanoma = tested on: LOX IMVI melanoma
M14 melanoma = tested on: M14 melanoma
MALME-3M melanoma = tested on: MALME-3M melanoma
MCF7 breast = tested on: MCF7 breast
MDA-MB-231 breast = tested on: MDA-MB-231 breast
MDA-MB-435 = tested on: MDA-MB-435
MDA-N = tested on: MDA-N
MOLT-4 leukemia = tested on: MOLT-4 leukemia
NCI-H226 lung = tested on: NCI-H226 lung
NCI-H23 lung = tested on: NCI-H23 lung
NCI-H460 lung = tested on: NCI-H460 lung
NCI-H522 lung = tested on: NCI-H522 lung
NCI/ADR-RES ovarian = tested on: NCI/ADR-RES ovarian
OVCAR-3 ovarian = tested on: OVCAR-3 ovarian
OVCAR-4 ovarian = tested on: OVCAR-4 ovarian
OVCAR-5 ovarian = tested on: OVCAR-5 ovarian
OVCAR-8 ovarian = tested on: OVCAR-8 ovarian
PC-3 prostate = tested on: PC-3 prostate
RPMI-8226 leukemia = tested on: RPMI-8226 leukemia
RXF 393 renal = tested on: RXF 393 renal
SF-268 CNS = tested on: SF-268 CNS
SF-295 CNS = tested on: SF-295 CNS
SF-539 CNS = tested on: SF-539 CNS
SK-MEL-2 melanoma = tested on: SK-MEL-2 melanoma
SK-MEL-28 melanoma = tested on: SK-MEL-28 melanoma
SK-MEL-5 melanoma = tested on: SK-MEL-5 melanoma
SK-OV-3 ovarian = tested on: SK-OV-3 ovarian
SN12C renal = tested on: SN12C renal
SNB-19 CNS = tested on: SNB-19 CNS
SNB-75 CNS = tested on: SNB-75 CNS
SR leukemia = tested on: SR leukemia
SW-620 colon = tested on: SW-620 colon
T-47D breast = tested on: T-47D breast
TK-10 renal = tested on: TK-10 renal
U251 CNS = tested on: U251 CNS
UACC-257 melanoma = tested on: UACC-257 melanoma
UACC-62 melanoma = tested on: UACC-62 melanoma
UO-31 renal = tested on: UO-31 renal
HL-60(TB) leukemia = tested on: HL-60(TB) leukemia

With `Cc1nc(Nc2ccc(Cl)cc2Cl)sc1C(=O)Nc1ccccc1` the TGI (786-0 renal) was over 100 µM, the TGI (A498 renal) was over 100 µM and the TGI (A549 NSCLC) was over 100 µM. The TGI (ACHN renal) was over 100 µM, the TGI (CAKI-1 renal) was over 100 µM and the TGI (CCRF-CEM leukemia) was over 100 µM. It also gave a TGI (COLO 205 colon) of over 100 µM, a TGI (DU-145 prostate) of over 100 µM and a TGI (EKVX NSCLC) of over 100 µM. For the same molecule, the TGI (HCC-2998 colon) was over 100 µM, the TGI (HCT-116 colon) was over 100 µM and the TGI (HCT-15 colon) was over 100 µM. The TGI (HOP-62 NSCLC) was over 100 µM, the TGI (HOP-92 NSCLC) was over 100 µM and the TGI (HS 578T breast) was over 100 µM. The TGI (HT29 colon) was over 100 µM, the TGI (IGROV1 ovarian) was over 100 µM and the TGI (K-562 leukemia) was over 100 µM. It also gave a TGI (KM12 colon) of over 100 µM, a TGI (LOX IMVI melanoma) of over 100 µM and a TGI (M14 melanoma) of over 100 µM. For the same molecule, the TGI (MALME-3M melanoma) was over 100 µM, the TGI (MCF7 breast) was over 100 µM and the TGI (MDA-MB-231 breast) was over 100 µM. It also gave a TGI (MDA-MB-435) of over 100 µM, a TGI (MDA-N) of over 100 µM and a TGI (MOLT-4 leukemia) of over 100 µM. The TGI (NCI-H226 lung) was 17.4 µM, the TGI (NCI-H23 lung) was over 100 µM and the TGI (NCI-H460 lung) was over 100 µM. The TGI (NCI-H522 lung) was over 100 µM, the TGI (NCI/ADR-RES ovarian) was over 100 µM and the TGI (OVCAR-3 ovarian) was over 100 µM. For the same molecule, the TGI (OVCAR-4 ovarian) was over 100 µM, the TGI (OVCAR-5 ovarian) was over 100 µM and the TGI (OVCAR-8 ovarian) was over 100 µM. The TGI (PC-3 prostate) was over 100 µM, the TGI (RPMI-8226 leukemia) was over 100 µM and the TGI (RXF 393 renal) was over 100 µM. For the same molecule, the TGI (SF-268 CNS) was over 100 µM, the TGI (SF-295 CNS) was over 100 µM and the TGI (SF-539 CNS) was over 100 µM. For the same molecule, the TGI (SK-MEL-2 melanoma) was over 100 µM, the TGI (SK-MEL-28 melanoma) was over 100 µM and the TGI (SK-MEL-5 melanoma) was over 100 µM. For the same molecule, the TGI (SK-OV-3 ovarian) was over 100 µM, the TGI (SN12C renal) was over 100 µM and the TGI (SNB-19 CNS) was over 100 µM. For the same molecule, the TGI (SNB-75 CNS) was over 100 µM, the TGI (SR leukemia) was over 100 µM and the TGI (SW-620 colon) was over 100 µM. The TGI (T-47D breast) was over 100 µM, the TGI (TK-10 renal) was over 100 µM and the TGI (U251 CNS) was over 100 µM. It also gave a TGI (UACC-257 melanoma) of over 100 µM, a TGI (UACC-62 melanoma) of over 100 µM and a TGI (UO-31 renal) of over 100 µM.

`Cc1ccc(/C=C2\CN(C)CC3=C2NC(=S)NC3c2ccc(C)cc2)cc1` (centres undefined) showed a TGI (786-0 renal) of 77.8 µM, a TGI (A498 renal) of over 100 µM and a TGI (A549 NSCLC) of over 100 µM. It also gave a TGI (ACHN renal) of over 100 µM, a TGI (CAKI-1 renal) of over 100 µM and a TGI (CCRF-CEM leukemia) of 82.4 µM. For the same molecule, the TGI (COLO 205 colon) was 46 µM, the TGI (DU-145 prostate) was over 100 µM and the TGI (EKVX NSCLC) was over 100 µM. The TGI (HCC-2998 colon) was 78.9 µM, the TGI (HCT-116 colon) was 60.1 µM and the TGI (HCT-15 colon) was over 100 µM. It also gave a TGI (HL-60(TB) leukemia) of 61.4 µM, a TGI (HOP-62 NSCLC) of over 100 µM and a TGI (HOP-92 NSCLC) of 82.8 µM. It also gave a TGI (HS 578T breast) of over 100 µM, a TGI (HT29 colon) of 80.4 µM and a TGI (IGROV1 ovarian) of over 100 µM. For the same molecule, the TGI (K-562 leukemia) was 56.9 µM, the TGI (KM12 colon) was 39 µM and the TGI (LOX IMVI melanoma) was over 100 µM. It also gave a TGI (M14 melanoma) of over 100 µM, a TGI (MALME-3M melanoma) of over 100 µM and a TGI (MCF7 breast) of 72.3 µM. For the same molecule, the TGI (MDA-MB-231 breast) was over 100 µM, the TGI (MDA-MB-435) was 28.1 µM and the TGI (MDA-N) was 36.7 µM. For the same molecule, the TGI (NCI-H226 lung) was over 100 µM, the TGI (NCI-H23 lung) was over 100 µM and the TGI (NCI-H460 lung) was over 100 µM. The TGI (NCI-H522 lung) was over 100 µM, the TGI (NCI/ADR-RES ovarian) was 68 µM and the TGI (OVCAR-3 ovarian) was 62.5 µM. For the same molecule, the TGI (OVCAR-4 ovarian) was 67.1 µM, the TGI (OVCAR-5 ovarian) was over 100 µM and the TGI (OVCAR-8 ovarian) was over 100 µM. It also gave a TGI (PC-3 prostate) of over 100 µM, a TGI (RXF 393 renal) of over 100 µM and a TGI (SF-268 CNS) of over 100 µM. For the same molecule, the TGI (SF-295 CNS) was over 100 µM, the TGI (SF-539 CNS) was over 100 µM and the TGI (SK-MEL-2 melanoma) was over 100 µM. It also gave a TGI (SK-MEL-28 melanoma) of over 100 µM, a TGI (SK-MEL-5 melanoma) of over 100 µM and a TGI (SK-OV-3 ovarian) of over 100 µM. It also gave a TGI (SN12C renal) of over 100 µM, a TGI (SNB-19 CNS) of over 100 µM and a TGI (SNB-75 CNS) of 68 µM. For the same molecule, the TGI (SW-620 colon) was over 100 µM, the TGI (T-47D breast) was over 100 µM and the TGI (U251 CNS) was over 100 µM. For the same molecule, the TGI (UACC-257 melanoma) was 62 µM, the TGI (UACC-62 melanoma) was over 100 µM and the TGI (UO-31 renal) was over 100 µM.

`C/C(O)=c1\cc(C#N)c(=C(C#N)C#N)nc1C` was tested, and the TGI (786-0 renal) was over 100 µM, the TGI (A498 renal) was over 100 µM and the TGI (A549 NSCLC) was over 100 µM. The TGI (ACHN renal) was over 100 µM, the TGI (CAKI-1 renal) was over 100 µM and the TGI (CCRF-CEM leukemia) was over 100 µM. The TGI (COLO 205 colon) was over 100 µM, the TGI (DU-145 prostate) was over 100 µM and the TGI (EKVX NSCLC) was over 100 µM. It also gave a TGI (HCC-2998 colon) of over 100 µM, a TGI (HCT-116 colon) of over 100 µM and a TGI (HCT-15 colon) of over 100 µM. It also gave a TGI (HL-60(TB) leukemia) of over 100 µM, a TGI (HOP-62 NSCLC) of over 100 µM and a TGI (HOP-92 NSCLC) of over 100 µM. The TGI (HS 578T breast) was over 100 µM, the TGI (HT29 colon) was over 100 µM and the TGI (IGROV1 ovarian) was over 100 µM. It also gave a TGI (K-562 leukemia) of over 100 µM, a TGI (KM12 colon) of over 100 µM and a TGI (LOX IMVI melanoma) of over 100 µM. For the same molecule, the TGI (M14 melanoma) was over 100 µM, the TGI (MALME-3M melanoma) was over 100 µM and the TGI (MCF7 breast) was over 100 µM. It also gave a TGI (MDA-MB-231 breast) of over 100 µM, a TGI (MDA-MB-435) of over 100 µM and a TGI (MDA-N) of over 100 µM. For the same molecule, the TGI (MOLT-4 leukemia) was over 100 µM, the TGI (NCI-H226 lung) was over 100 µM and the TGI (NCI-H23 lung) was over 100 µM. The TGI (NCI-H460 lung) was over 100 µM, the TGI (NCI-H522 lung) was over 100 µM and the TGI (NCI/ADR-RES ovarian) was over 100 µM. For the same molecule, the TGI (OVCAR-4 ovarian) was over 100 µM, the TGI (OVCAR-5 ovarian) was over 100 µM and the TGI (OVCAR-8 ovarian) was over 100 µM. For the same molecule, the TGI (PC-3 prostate) was over 100 µM, the TGI (RPMI-8226 leukemia) was over 100 µM and the TGI (RXF 393 renal) was over 100 µM. The TGI (SF-268 CNS) was over 100 µM, the TGI (SF-539 CNS) was over 100 µM and the TGI (SK-MEL-2 melanoma) was over 100 µM. It also gave a TGI (SK-MEL-28 melanoma) of over 100 µM, a TGI (SK-MEL-5 melanoma) of over 100 µM and a TGI (SN12C renal) of over 100 µM. For the same molecule, the TGI (SNB-19 CNS) was over 100 µM, the TGI (SNB-75 CNS) was over 100 µM and the TGI (SR leukemia) was over 100 µM. It also gave a TGI (SW-620 colon) of over 100 µM, a TGI (T-47D breast) of over 100 µM and a TGI (U251 CNS) of over 100 µM. It also gave a TGI (UACC-62 melanoma) of over 100 µM and a TGI (UO-31 renal) of over 100 µM.
